One may read the pIC50 as the negative decadic logarithm of the IC50, by convention in mol/L. A lower pIC50 goes with a high IC50.

pIC50: −log10 of the molar value.

A short description of assay [1]: In vitro thromboxane receptor antagonist activity was determined by inhibition of U-46619 induced aggregation of washed human platelets.
Assay in assay [2]: as above
This is another data set of the same source.

Assay in assay [3]: as above
This is another data set of the same source.

`O=C(O)CC/C=C\CC[C@@H]1[C@@H](c2cccnc2)[S@@+]([O-])C[C@H]1OCc1ccc(-c2ccccc2)cc1` had a pIC50 in assay [1] of 6.98.

Regarding `O=C(O)CC/C=C\CC[C@@H]1[C@@H](c2cccnc2)[S@+]([O-])C[C@H]1OCc1ccc(-c2ccccc2)cc1`, in assay [1], the pIC50 is 7.11.

Compound `O=C(O)CC/C=C\CC[C@H]1[C@@H](OCc2ccc(-c3ccccc3)cc2)CS(=O)(=O)[C@@H]1c1cccnc1` [(Z)-7-[(2S,3S,4R)-4-(Biphenyl-4-ylmethoxy)-1,1-dioxo-2-pyridin-3-yl-tetrahydro-1lambda*6*-thiophen-3-yl]-hept-4-enoic acid] had a negative-log IC50 (pIC50) in assay [1] of 7.62.

In assay [1], `O=C(O)CC/C=C\CC[C@H]1[C@@H](OCc2ccc(-c3ccccc3)cc2)C[S+]([O-])[C@@H]1c1cccnc1` (stereo partly drawn) [(Z)-7-[(2S,3S,4R)-4-(Biphenyl-4-ylmethoxy)-1-oxo-2-pyridin-3-yl-tetrahydro-1lambda*4*-thiophen-3-yl]-hept-4-enoic acid] gave a negative-log IC50 (pIC50) of 7.24.

Take `O=C(O)CC/C=C\CC[C@H]1[C@@H](OCc2ccc(-c3ccccc3)cc2)CS[C@@H]1c1cccnc1` [(Z)-7-[(2S,3S,4R)-4-(Biphenyl-4-ylmethoxy)-2-pyridin-3-yl-tetrahydro-thiophen-3-yl]-hept-4-enoic acid]: in assay [1], the pIC50 is 7.34.

On to `O=C(O)CC/C=C\CC[C@@H]1[C@@H](c2cccnc2)S(=O)(=O)C[C@H]1OCc1ccc(-c2ccccc2)cc1` [(Z)-7-[(2S,3S,4S)-4-(Biphenyl-4-ylmethoxy)-1,1-dioxo-2-pyridin-3-yl-tetrahydro-1lambda*6*-thiophen-3-yl]-hept-4-enoic acid], for which the pIC50 in assay [1] was 7.74.

Regarding `O=C(O)CC/C=C\CC[C@@H]1[C@@H](c2cccnc2)SC[C@H]1OCc1ccc(-c2ccccc2)cc1` [(Z)-7-[(2S,3S,4S)-4-(Biphenyl-4-ylmethoxy)-2-pyridin-3-yl-tetrahydro-thiophen-3-yl]-hept-4-enoic acid], the pIC50 in assay [2] is 7.34; in assay [3] it was 7.66.

In turn, `O=C(O)CCC/C=C\C[C@@H]1[C@@H](c2cccnc2)SC[C@H]1OCc1ccc(-c2ccccc2)cc1` [(Z)-7-[(2S,3S,4S)-4-(Biphenyl-4-ylmethoxy)-2-pyridin-3-yl-tetrahydro-thiophen-3-yl]-hept-5-enoic acid] gave a pIC50 in assay [1] of 6.64.

`O=C(O)CC/C=C\CC[C@@H]1[C@@H](N2CCCCC2)[C@@H](O)C[C@@H]1OCc1ccc(-c2ccccc2)cc1` [GR 32191]: the negative-log IC50 (pIC50) in assay [1] is 7.92.
